Test results: ChEMBL document CHEMBL1128911 (Bioorg Med Chem Lett, 1996)

Key:
Melatonin receptor = assay type: protein assay, Ovis aries
[1] = target: T1, Melatonin receptor (Homo sapiens) (UniProt P48039+P49286); assay: Compound was evaluated for agonistic activity against cAMP production stimulated by forskolin; Potential stimulation; assay type: functional; details: Ovis aries; filed as agonist
[2] = target: T1, Melatonin receptor (Homo sapiens); assay: Binding affinity against ovine pars tuberalis melatonin receptor using 2-[125I]- melatonin radioligand binding assay; assay type: protein assay; details: Ovis aries; target entry is the homologue from another species

Ki (Melatonin receptor) [nM]	Activity [1]	KH [2] [pM]	KL [2] [nM]	SMILES
130	–	–	–	CC(=O)NCCc1cccc2ccc3c(c12)C(O)CO3 (stereo not given)
62.2	Agonist	–	–	CC(=O)NCCC1CCCc2cc3c(cc21)OCCO3 (stereo not given)
6.17	Agonist	–	–	CC(=O)NCCC1CCCc2ccc3c(c21)CCCO3 (stereo not given)
13.9	–	–	–	CC(=O)NCCc1cccc2ccc3c(c12)C(=O)CO3
–	–	0.0069	1.2	CC(=O)NCCc1cccc2ccc3c(c12)CC(C)O3 (stereo not given)
0.216	–	–	–	CC(=O)NCCc1cccc2ccc3c(c12)CCCO3
0.137	–	–	–	CC(=O)NCCc1cccc2ccc3c(c12)C=CCO3
